Results reported in US10947252B2, “Inhibitors of KEAP1-Nrf2 protein-protein interaction” (Janssen Pharmaceutica NV, priority 2018, dated 2021).

Experiments:
[1] = biological target: Kelch domain of human KEAP1 (321-624 aa) (Homo sapiens (Human), UniProt Q14145); assay: KEAP1 KELCH ThermoFluor binding assay; details: KEAP Kelch […], 1,8-ANS, pH 7.0, average of results obtained, read-out: Tf Kd;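 further: Ligand-induced melting temperature shift of E. coli-expressed KEAP1 Kelch protein, Kd estimated from concentration-response curves of ΔTm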
Sequence of Kelch domain of human KEAP1 (321-624 aa) (Q14145 321-624): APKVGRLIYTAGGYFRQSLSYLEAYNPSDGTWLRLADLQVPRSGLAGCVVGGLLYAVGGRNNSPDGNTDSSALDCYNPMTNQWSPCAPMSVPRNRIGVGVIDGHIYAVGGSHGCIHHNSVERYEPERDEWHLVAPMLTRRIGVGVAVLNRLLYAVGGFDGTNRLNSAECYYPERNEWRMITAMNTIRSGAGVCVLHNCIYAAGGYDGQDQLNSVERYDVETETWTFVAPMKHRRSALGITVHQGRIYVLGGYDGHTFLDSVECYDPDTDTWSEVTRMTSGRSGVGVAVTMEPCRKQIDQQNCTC

[2] = system: Glo-Response ARE-luc2P HEK293 cell line; assay: ARE luciferase reporter cell-based assay; details: Homo sapiens, HEK293, 24 h, average of results obtained;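 further: luciferase signal tracks Nrf2 activation of the ARE once compounds disrupt KEAP1-Nrf2 binding, read with One-Glo reagent, DMSO serving as low control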

Row | Kd [1] | SMILES | EC50 [2]
1 | 6 nM | Cc1ccc([C@@H](CC(=O)O)c2ccc3c(nnn3C3CC3)c2C)cc1CN1CC2(CC2)N(C)c2ncccc2S1(=O)=O (single isomer, unassigned) [Example 226, (*R)-3-(1-Cyclopropyl-4-methyl-1H-benzo[d][1,2,3]triazol-5-yl)-3-(4-methyl-3-((5′-methyl-1′,1′-dioxido-5′H-spiro[cyclopropane-1,4′-pyrido[2,3-f][1,2,5]thiadiazepin]-2′(3′H)-yl)methyl)phenyl)propanoic Acid] | 160 nM
2 | < 1 nM | Cc1ccc([C@H](CC(=O)O)c2ccn3c(C(F)(F)F)nnc3c2C)cc1CN1CC2(CC2)Oc2nc(NCCO)ccc2S1(=O)=O (single isomer, unassigned) [Example 101, (*S)-3-(3-((7′-((2-Hydroxyethyl)amino-1′,1′-dioxidospiro[cyclopropane-1.4′-pyrido[2,3-b][1,4,5]oxathiazepin]-2′(3′H)-yl)methyl)-4-methylphenyl)-3-(8-methyl-3-(trifluoromethyl)-[1,2,4]triazolo[4,3-a]pyridinn-7-yl)propanoic Acid] | 577 nM
3 | < 1 nM | Cc1cnc2c(c1)S(=O)(=O)N(Cc1cc(C(CC(=O)O)c3ccn4c(C(F)F)nnc4c3C)ccc1C)CC1(CC1)O2 (centres unmarked) [Example 535, 3-(3-(Difluoromethyl)-8-methyl-[1,2,4]triazolo[4,3-a]pyridin-7-yl)-3-(4-methyl-3-((8′-methyl-1′,1′-dioxidospiro[cyclopropane-1,4′-pyrido[2,3-b][1,4,5]oxathiazepin]-2′(3′H)-yl)methyl)phenyl)propanoic Acid] | 146 nM
4 | < 1 nM | Cc1ccc([C@H](CC(=O)O)c2ccn3c(C(F)(F)F)nnc3c2C)cc1CN1CC2(CC2)Oc2nc(NCCN3CCCCC3)ccc2S1(=O)=O (single isomer, unassigned) [Example 112, (*S)-3-(3-((1′,1′-Dioxido-7′-((2-(piperidin-1-yl)ethyl)amino)spiro[cyclopropane-1,4′-pyrido[2,3-b][1,4,5]oxathiazepin]-2′(3′H)-yl)methyl)-4-methylphenyl)-3-(8-methyl-3-(trifluoromethyl)-[1,2,4[triazolo[4,3-a]pyridine-7-yl)propanoic Acid] | 1310 nM
5 | 260 nM | Cc1ccc([C@H](CC(N)=O)c2ccn3c(C(F)(F)F)nnc3c2C)cc1CN1C[C@@H]2CCCCN2c2ncccc2S1(=O)=O (single isomer, unassigned) [Example 548, (*S)-3-(3-(((*S)-5,5-Dioxido-7,7a,8,9,10,11-hexahydro-6H-dipyrido[2,1-d:2′,3′-f][1,2,5]thiadiazepin-6-yl)methyl)-4-methylphenyl)-3-(8-methyl-3-(trifluoromethyl)-[1,2,4]triazolo[4,3-a]pyridin-7-yl)propanamide] | 2740 nM
6 | < 1 nM | Cc1ccc([C@H](CC(=O)O)c2ccn3c(C(F)(F)F)nnc3c2C)nc1CN1CC2(COC2)Oc2ncccc2S1(=O)=O (single isomer, unassigned) [Example 495, (*R)-3-(6-((1′,1′-Dioxidospiro[oxetane-3,4′-pyrido[2,3-b][1,4,5]oxathiazepin]-2′(3′H)-yl)methyl)-5-methylpyridin-2-yl)-3-(8-methyl-3-(trifluoromethyl)-[1,2,4]triazolo[4,3-a]pyridin-7-yl)propanoic Acid] | 2860 nM
7 | 300 nM | Cc1ccc([C@H](CC(=O)O)c2ccn3c(C(F)(F)F)nnc3c2C)cc1CN1CC2(CC2)Oc2ncc(C(N)=O)cc2S1(=O)=O (single isomer, unassigned) [Example 201, (*S)-3-(3-((8′-Carbamoyl-1′,1′-dioxidospiro[cyclopropane-1,4′-pyrido[2,3-b][1,4,5]oxathiazepin]-2′(3′H)-yl)methyl)-4-methylphenyl)-3-(8-methyl-3-(trifluoromethyl)-[1,2,4]triazolo[4,3-a]pyridin-7-yl)propanoic Acid] | > 20000 nM
8 | 13.7 nM | Cc1ccc([C@@H](CC(=O)O)c2ccn3c(C(F)F)nnc3c2C)cc1CN1C[C@H]2COCCN2c2ncccc2S1(=O)=O (single isomer, unassigned) [Example 462, (*R)-3-(3-(Difluoromethyl)-8-methyl-[1,2,4]triazolo[4,3-a]pyridin-7-yl)-3-(3-(((*S)-5,5-dioxido-7a,8,10,11-tetrahydro-[1,4]oxazino[3,4-d]pyrido[2,3-f][1,2,5]thiadiazepin-6(7H)-yl)methyl)-4-methylphenyl)propanoic Acid] | 2930 nM
9 | 2260 nM | Cc1ccc([C@H](c2ccn3c(C(F)(F)F)nnc3c2C)C(C)(C)C(=O)O)nc1CN1CC2(CC2)Oc2nc(OCCN3CCCC3)c(C)cc2S1(=O)=O (single isomer, unassigned) [Example 633, (*R)-2,2-Dimethyl-3-(8-methyl-3-(trifluoromethyl)-[1,2,4]triazolo[4,3-a]pyridin-7-yl)-3-(5-methyl-6-((8′-methyl-1′,1′-dioxido-7′-(2-(pyrrolidin-1-yl)ethoxy)spiro[cyclopropane-1,4′-pyrido[2,3-b][1,4,5]oxathiazepin]-2′(3′H)-yl)methyl)pyridin-2-yl)propanoic Acid] | 1750 nM
10 | < 1 nM | CC[C@@H]1CN(Cc2cc([C@@H](CC(=O)O)c3cc(OC(F)F)c4c(c3)nnn4C)ccc2C)S(=O)(=O)c2cccnc2O1 (single isomer, unassigned) [Example 251, (*R)-3-(7-(Difluoromethoxy)-1-methyl-1H-benzo[d][1,2,3]triazol-5-yl)-3-(3-(((R)-4-ethyl-1,1-dioxido-3,4-dihydro-2H-pyrido[2,3-b][1,4,5]oxathiazepin-2-yl)methyl)-4-methylphenyl)propanoic Acid] | 24.1 nM
11 | 1.19 nM | Cc1ccc([C@H](CC(=O)O)c2ccn3c(C(F)(F)F)nnc3c2C)cc1CN1C[C@@H]2CCCN2c2ccccc2S1(=O)=O (single isomer, unassigned) [Example 274, (*S)-3-(3-(((S)-5,5-Dioxido-7a,8,9,10-tetrahydrobenzo[f]pyrrolo[2,1-d][1,2,5]thiadiazepin-6(7H)-yl)methyl)-4-methylphenyl)-3-(8-methyl-3-(trifluoromethyl)-[1,2,4]triazolo[4,3-a]pyridin-7-yl)propanoic Acid] | 51.2 nM
12 | 831 nM | Cc1ccc([C@@H](c2ccn3c(C(F)(F)F)nnc3c2)C(C)(C)C(=O)O)cc1CN1CC2(CCOCC2)Oc2ncccc2S1(=O)=O (single isomer, unassigned) [Example 320, (*S)-3-(3-((1′,1′-Dioxido-2,3,5,6-tetrahydrospiro[pyran-4,4′-pyrido[2,3-b][1,4,5]oxathiazepin]-2′(3′H)-yl)methyl)-4-methylphenyl)-2,2-dimethyl-3-(3-(trifluoromethyl)-[1,2,4]triazolo[4,3-a]pyridin-7-yl)propanoic Acid] | 19400 nM
13 | 3070 nM | Cc1ccc([C@H](c2ccn3c(C(F)F)nnc3c2C)C(C)(C)C(=O)O)nc1CN1CC2(CCOCC2)Oc2nc(OCCN3CCCCC3)c(C)cc2S1(=O)=O (single isomer, unassigned) [Example 355, (*R)-3-(3-(Difluoromethyl)-8-methyl-[1,2,4]triazolo[4,3-a]pyridin-7-yl)-2,2-dimethyl-3-(5-methyl-6-((8′-methyl-1′,1′-dioxido-7′-(2-(piperidin-1-yl)ethoxy)-2,3,5,6-tetrahydrospiro[pyran-4,4′-pyrido[2,3-b][1,4,5]oxathiazepin]-2′(3′H)-yl)methyl)pyridin-2-yl)propanoic Acid] | 1140 nM
